Patent publication US20260125428A1, “SYNTHETIC TRIPLEX PEPTIDE NUCLEIC ACID-BASED INHIBITORS FOR CANCER THERAPY” (University of Connecticut, priority 2022, published 2026)

Experiments:
[1] = tested on: C-Myc oncogene; test: Gene expression (RT-PCR) in U2932 cells after combination treatment; assay type: cell-based, human
Experimental: (§1) Gene expression: The levels of mRNA were measured in different cell lines using real time-polymerase chain reaction (RT-PCR). Both untreated (PBMC, U2932, Raji, Daudi) and PNA treated lymphoma cells were collected at the end of treatment. Total RNA was extracted using Qiagen RNeasy® kit (USA) and concentration was measured by Nanodrop™. cDNA was synthesized using high capacity cDNA reverse transcription kit (Applied Biosystem, USA) following the recommended cycling conditions. Taqman® gene expression assay for C-Myc, EZH2, BCL2, MCL1 and GAPDH were used to amplify the respective mRNAs using the specified cycling conditions in the CFX Real-Time PCR detection system. GAPDH was used as the reference gene and fold change in mRNA expression was obtained by normalizing against the untreated cells or cells treated with HDAC inhibitors.

[2] = tested on: U2932 cells; test: Cell viability (trypan blue) of U2932 cells; assay type: cell-based; conditions: 24 h, different doses
Experimental: (§2) FIGS. 4A-F show effect of cellular uptake of indicated PNAs. (4A) Expression levels of C-Myc oncogene in U2932 (DLBCL), Raji and Daudi cells (Burkitt's lymphoma) in comparison to the peripheral blood mononuclear cells (PBMC). (4B) Cell viability of U2932 cells after 24 h treatment with indicated PNAs at different doses. (4C) Cell viability of Raji cells after 24 h treatment with indicated PNAs at different doses. (4D) Gene expression levels of C-Myc oncogene and its downstream targets including MCL1 and EZH2 in U2932 cells after 24 h of treatment with γPNA1-NLS, γPNA2-NLS, and ScrγPNA4-NLS at 8 μM. (4E) Gene expression levels of C-Myc oncogene and its downstream targets including BCL2 and EZH2 in Raji cells after 24 h of treatment with γPNA1-NLS, γPNA2-NLS, and ScrγPNA4-NLS at 8 μM. (4F) Gene expression levels of C-Myc in U2932 cells after 24 h treatment with γPNA2-NLS and ScrγPNA4-NLS at indicated doses.

[3] = tested on: U2932 cells; test: Viability of U2932 cells, combination of PNAs with HDAC inhibitors and other drugs
Experimental: FIGS. 9A-D show cell viability after treatment with indicated PNAs. (9A) The viability of U2932 cells after treatment with γPNA1-NLS (8 μM), romidepsin (10 nM) and combination of γPNA1-NLS with romidepsin over 96 hours. (9B) The viability of U2932 cells after treatment with γPNA2-NLS (8 μM), romidepsin (10 nM) and combination of γPNA2-NLS with romidepsin over 96 hours. (9C) Fold change in C-Myc levels after combination of γPNA1-NLS and γPNA2-NLS with romidepsin in comparison to only romidepsin treatment. (9D) Fold change in BCL2 levels after combination of γPNA1-NLS and γPNA2-NLS with romidepsin in comparison to only romidepsin treatment.
FIGS. 10A-F show the viability of U2932 cells after indicated treatment. (10A) Viability of U2932 cells after treatment with γPNA2-NLS […], vorinostat (2.5 μM) and combination of γPNA2-NLS with vorinostat over 96 hours. (10B) The viability of U2932 cells after treatment with γPNA2-NLS (8 μM), valproic acid (2 mM) and combination of γPNA2-NLS with valproic acid over 96 hours. […] (10E) The viability of U2932 cells after treatment with CHOP (cyclophosphamide, vincristine, doxorubicin, prednisone) and combination of γPNA2-NLS with CHOP at different doses.
Cell viability: U2932 and Raji cells were seeded in 96 well plates at 20,000 cells/well. PNAs were added to the media at different concentrations (1, 2, 4, and 8 μM). […] The cell viability was then measured via trypan blue staining on day 1, 2, and 4.

[4] = tested on: U2932 derived xenografts; test: Tumor growth and survival study in U2932 derived xenograft mice; assay type: in vivo; conditions: 5 mg/kg systemic on day 1, 4, 7, and 10; for survival of the mice: saline 21 days
Experimental: FIGS. 7A-C show survival data of mice after systemic administration of indicated PNAs. (7A) Graph representing the tumor volume of U2932 xenografts after systemic treatment with indicated PNAs (n≥4 mice per group). PNAs were administered systemically on day 1, 4, 7, and 10 (n≥4 mice per group). (7B) The survival of U2932 derived xenograft mice after treatment with γPNA2-NLS, γPNA3, and ScrγPNA4-NLS at 5 mg/kg dose in comparison to the control (saline) mice. (7C) Complete blood count analysis of mice from different groups at the end of the study. RBC: red blood cells; WBC: white blood cells; HGB: hemoglobin; PLT: platelets; HCT: hematocrit; MCH: […]. (D) Blood chemistry analysis of mice from different groups at the end of the study. ALT: alanine transaminase; AST: aspartate transaminase; BUN: blood urea nitrogen; LDH: Lactate dehydrogenase. Results are presented as mean±SEM (n≥4).
In vivo studies in xenograft mice model: U2932 derived xenografts were generated by implanting 10 million cells subcutaneously on the lower right flank of the female NSG mice (NOD.Cg-Prkdc^scidIl2rg^tm1Wj1/SzJ, #005557, Jackson Laboratories, USA) of 5-6 weeks. The mice were maintained in the animal care facility at the University of Connecticut following the required Institutional Animal Care and Use Committee guidelines (IACUC). Mice developed palpable tumors after 3-4 weeks of implantation. Tumor dimensions including length (l), breadth (b), and height (h) were measured using a caliper and volume was calculated using the formula for ellipsoid (0.5236×lbh).
Survival study: Mice bearing tumors about 100-150 mm^3 were divided into 4 groups. Mice were treated with either γPNA2-NLS, γPNA3, Scr-γPNA4-NLS, or saline. PNAs were administered at 5 mg/kg dose on day 1, 4, 7, and 10. The change in tumor volume was measured every day. Mice were euthanized when the tumor volume reached 2000 mm^3. Blood was collected via cardiac punter in 1.5 ml tubes containing 0.5 M EDTA. Organs including tumor, liver, kidney, spleen, heart and lung were collected. Tumor fraction and all organs were kept in 10% formalin and submitted for histology. The complete blood count analysis was performed on the collected blood samples using Sysmex CBC analyzer. Plasma was separated from the blood samples and submitted to Antech diagnostic for blood chemistry analysis to quantify the levels of alanine transaminase, lactate dehydrogenase, aspartate transaminase and blood urea nitrogen.

[5] = tested on: C-Myc oncogene; test: Gene expression (RT-PCR) of C-Myc and downstream targets in U2932 cells; assay type: cell-based, human; conditions: 24 h
Experimental: as §2, §1

[6] = tested on: Raji cells; test: Cell viability (trypan blue) of Raji cells; assay type: cell-based; conditions: 24 h, different doses
Experimental: as §2

[7] = tested on: C-Myc oncogene; test: Gene expression (RT-PCR) of C-Myc and downstream targets in Raji cells; assay type: cell-based, human; conditions: 24 h, 8 μM
Experimental: as §2, §1

JJJTJJJT-OOO-TCCCTCCCTCCGTTCTTTTTCCC-K-OOO-VKRKKKP (gamma PNA tail clamp; linkers; NLS peptide; gammaPNA to target C-Myc Exon 1; misc_feature 1 JJJTJJJT-linker- is covalently linked to the backbone, wherein J is pseudoisocytosine and the linker is 11-Amino-3,6,9-Trioxaundecanoic Acid (DCHA), represented as -OOO-; misc_feature 23 -K-linker-SEQ ID NO: 5 is covalently linked to the backbone, wherein the linker is 11-Amino-3,6,9-Trioxaundecanoic Acid (DCHA), represented as -OOO-; modified_base 1) [γPNA2-NLS]
knockdown of c-myc, combination with valproic acid ([1]; 96 h, valproic acid 2 mM): higher knockdown of c-myc
knockdown of c-myc, combination with vorinostat ([1]; 96 h, vorinostat 2.5 uM, PNA 8 μM): higher knockdown of c-myc
BCL-2 levels, combination with romidepsin in comparison to only romidepsin ([1]; day 4): reduced levels
decrease in C-Myc levels, combination with romidepsin compared with only romidepsin ([1]; day 4, PNA 8 uM, romidepsin 10 nM): > 90%
viability of U2932 cells [2]: significant decrease in the viability
viability, combination with venetoclax ([3]; U2932 cells, over time): significant reduction in viability
combination effect with romidepsin on viability (in words) ([3]; U2932 cells, romidepsin 10 nM, PNA 8 uM): synergistic activity
viability, combination with CHOP ([3]; U2932 cells, trypan blue, 24 h and 48 h): significant reduction in viability
viability, combination with valproic acid in comparison to the individual treatments ([3]; U2932 cells, valproic acid 2 mM, PNA 8 μM, over 96 hours): significant decrease in viability
combination effect with vorinostat on viability ([3]; U2932 cells, vorinostat 2.5 μM, over 96 hours): synergistic activity
decrease in U2932 cell viability, combination with romidepsin ([3]; romidepsin 10 nM pretreatment 24 h, PNA 8 uM, day 4): approximately 80%
efficacy on tumor growth in comparison to γPNA3 [4]: superior efficacy
tumor growth in comparison to the control groups [4]: significantly reduced tumor growth
survival of the mice [4]: 29 days
dose of maximum knockdown of C-Myc ([5]; different doses): 8 µM
decrease in the levels of C-Myc ([5]; RT-PCR, 8 μM): > 50%
levels of downstream targets MCL1 and EZH2 ([5]; RT-PCR, 8 μM): significant decrease in the levels of MCL1 and EZH2
viability of Raji cells [6]: significant decrease in the viability
decrease in the levels of C-Myc [7]: > 50%
levels of downstream targets BCL2 and EZH2 [7]: downregulation of BCL2 and EZH2

X5CCTCCCTTCTTCCTTCTCCCTTGX2 (gamma PNA; NLS peptide; scramble gammaPNA; misc_feature 1 TJJJJJJTJ-linker- is covalently linked to the backbone, wherein J is pseudoisocytosine and the linker is 11-Amino-3,6,9-Trioxaundecanoic Acid (DCHA), represented as -OOO-; misc_feature 23 -K-linker-SEQ ID NO: 5 is covalently linked to the backbone, wherein the linker is 11-Amino-3,6,9-Trioxaundecanoic Acid (DCHA), represented as -OOO-; modified_base 1..23 OTHER; p) [ScrγPNA4-NLS, reference compound]
viability of U2932 cells [2]: no impact on the viability
survival of the mice [4]: 19.5 days
knockdown of C-Myc at different doses (in words) ([5]; different doses): no activity
levels of downstream targets MCL1 and EZH2 ([5]; RT-PCR, 8 μM): no change in their levels
viability of Raji cells [6]: no impact on the viability
levels of downstream targets BCL2 and EZH2 [7]: no change in their levels
